Measured values from ChEMBL document CHEMBL1909046, “DrugMatrix in vitro pharmacology data”.

Key:
[1] = molecular target: 5-hydroxytryptamine receptor 6 (Homo sapiens, UniProt P50406); format: cell membranes, HeLa, Membrane; also: in other assays of this panel Not Active means under 50% inhibition at 10 µM
[2] = molecular target: C-C chemokine receptor type 5 (Homo sapiens, UniProt P51681); format: cell membranes, Membrane; details: hek293; also: in other assays of this panel Not Active means under 50% inhibition at 10 µM
C-C chemokine receptor type 5, sequence (P51681 whole entry): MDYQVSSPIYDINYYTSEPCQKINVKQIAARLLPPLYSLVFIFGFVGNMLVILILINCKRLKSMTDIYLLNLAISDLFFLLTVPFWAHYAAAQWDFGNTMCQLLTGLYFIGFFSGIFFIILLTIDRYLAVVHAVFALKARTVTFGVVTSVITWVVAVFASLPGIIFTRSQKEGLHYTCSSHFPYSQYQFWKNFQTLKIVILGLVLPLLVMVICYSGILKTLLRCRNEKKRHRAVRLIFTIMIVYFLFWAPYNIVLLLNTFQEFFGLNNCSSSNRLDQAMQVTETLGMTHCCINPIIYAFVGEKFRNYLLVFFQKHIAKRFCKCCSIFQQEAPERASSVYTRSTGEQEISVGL

[3] = DRUGMATRIX: GABAA, Muscimol, Central radioligand binding (ligand: [3H] Muscimol); format: cell membranes, Rattus norvegicus, Wistar, Brain, Membrane; details: Not Active = under 50% inhibition at 10 µM
[4] = molecular target: T1, 3-hydroxy-3-methylglutaryl-coenzyme A reductase (Homo sapiens, UniProt P04035); parameters: species or system Escherichia coli;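 also: enzyme inhibition assay of HMG-CoA reductase using radiolabeled [14C]HMG-CoA as substrate; in other assays of this panel Not Active means under 50% inhibition at 10 µM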
T1 sequence (P04035 whole entry): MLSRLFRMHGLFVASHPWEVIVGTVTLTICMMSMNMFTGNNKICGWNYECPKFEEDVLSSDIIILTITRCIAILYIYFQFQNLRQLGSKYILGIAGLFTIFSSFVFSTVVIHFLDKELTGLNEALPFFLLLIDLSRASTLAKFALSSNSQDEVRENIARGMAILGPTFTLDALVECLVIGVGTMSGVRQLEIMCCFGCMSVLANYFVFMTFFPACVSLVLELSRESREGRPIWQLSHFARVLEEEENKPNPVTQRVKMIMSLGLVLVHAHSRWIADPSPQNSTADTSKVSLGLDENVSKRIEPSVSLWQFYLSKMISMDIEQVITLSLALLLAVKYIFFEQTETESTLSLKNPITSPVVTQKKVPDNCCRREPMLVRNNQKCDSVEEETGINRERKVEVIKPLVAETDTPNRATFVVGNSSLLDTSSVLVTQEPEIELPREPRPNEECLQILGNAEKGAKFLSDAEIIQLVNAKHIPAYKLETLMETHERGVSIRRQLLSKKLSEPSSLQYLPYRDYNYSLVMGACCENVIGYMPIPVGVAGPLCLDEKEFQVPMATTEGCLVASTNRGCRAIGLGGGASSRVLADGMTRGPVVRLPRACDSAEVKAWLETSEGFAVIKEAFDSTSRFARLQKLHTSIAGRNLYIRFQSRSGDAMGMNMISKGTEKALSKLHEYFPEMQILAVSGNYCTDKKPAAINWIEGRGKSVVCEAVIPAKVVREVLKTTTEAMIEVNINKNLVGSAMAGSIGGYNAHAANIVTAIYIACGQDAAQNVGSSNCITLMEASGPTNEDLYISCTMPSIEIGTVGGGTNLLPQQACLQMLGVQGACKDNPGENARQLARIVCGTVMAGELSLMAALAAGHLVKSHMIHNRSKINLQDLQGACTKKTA

[5] = molecular target: T2, Leukotriene C4 synthase (Cavia porcellus, UniProt A6XA80); format: tissue-based, Lung;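 also: enzyme inhibition assay of leukotriene C4 synthase, using LTA4 as the substrate; in other assays of this panel Not Active means under 50% inhibition at 10 µM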
T2 sequence (A6XA80 whole entry): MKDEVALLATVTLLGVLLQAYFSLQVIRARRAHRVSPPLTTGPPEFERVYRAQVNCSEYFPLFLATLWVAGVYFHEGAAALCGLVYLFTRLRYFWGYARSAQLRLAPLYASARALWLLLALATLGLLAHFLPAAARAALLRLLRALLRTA

[6] = molecular target: Mitogen-activated protein kinase 1 (Homo sapiens, UniProt P28482); assay: DRUGMATRIX: Protein Serine/Threonine Kinase, ERK2 enzyme inhibition (substrate: Myelin Basic Protein); parameters: species or system Escherichia coli; details: Not Active = under 50% inhibition at 10 µM
Mitogen-activated protein kinase 1, sequence (P28482 whole entry): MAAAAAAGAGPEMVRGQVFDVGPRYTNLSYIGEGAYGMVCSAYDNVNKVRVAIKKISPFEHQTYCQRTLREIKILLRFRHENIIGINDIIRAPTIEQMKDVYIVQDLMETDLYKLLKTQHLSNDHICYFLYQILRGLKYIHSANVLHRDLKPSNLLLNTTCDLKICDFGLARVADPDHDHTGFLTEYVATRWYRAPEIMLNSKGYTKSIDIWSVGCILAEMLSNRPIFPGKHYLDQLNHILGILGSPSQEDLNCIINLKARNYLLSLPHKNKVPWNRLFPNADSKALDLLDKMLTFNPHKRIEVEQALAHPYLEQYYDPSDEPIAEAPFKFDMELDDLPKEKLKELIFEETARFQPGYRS

[7] = molecular target: Cytochrome P450 2C9 (Homo sapiens, UniProt P11712); details: bti-tn-5b1-4; also: in other assays of this panel Not Active means under 50% inhibition at 10 µM
Cytochrome P450 2C9, sequence (P11712 whole entry): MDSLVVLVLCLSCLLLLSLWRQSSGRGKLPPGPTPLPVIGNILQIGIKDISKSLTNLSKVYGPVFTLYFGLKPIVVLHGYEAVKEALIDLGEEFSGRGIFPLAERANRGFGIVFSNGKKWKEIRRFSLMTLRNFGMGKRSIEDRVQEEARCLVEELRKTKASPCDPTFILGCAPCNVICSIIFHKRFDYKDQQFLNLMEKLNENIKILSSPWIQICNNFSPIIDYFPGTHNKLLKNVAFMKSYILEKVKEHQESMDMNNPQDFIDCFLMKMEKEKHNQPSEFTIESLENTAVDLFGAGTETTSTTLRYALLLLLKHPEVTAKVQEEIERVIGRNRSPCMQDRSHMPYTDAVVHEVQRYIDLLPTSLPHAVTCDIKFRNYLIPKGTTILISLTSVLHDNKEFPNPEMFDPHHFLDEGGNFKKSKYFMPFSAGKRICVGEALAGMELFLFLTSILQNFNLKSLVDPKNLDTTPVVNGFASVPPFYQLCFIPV

[8] = molecular target: Cytochrome P450 2E1 (Homo sapiens, UniProt P05181); details: bti-tn-5b1-4; also: in other assays of this panel Not Active means under 50% inhibition at 10 µM
Cytochrome P450 2E1, sequence (P05181 whole entry): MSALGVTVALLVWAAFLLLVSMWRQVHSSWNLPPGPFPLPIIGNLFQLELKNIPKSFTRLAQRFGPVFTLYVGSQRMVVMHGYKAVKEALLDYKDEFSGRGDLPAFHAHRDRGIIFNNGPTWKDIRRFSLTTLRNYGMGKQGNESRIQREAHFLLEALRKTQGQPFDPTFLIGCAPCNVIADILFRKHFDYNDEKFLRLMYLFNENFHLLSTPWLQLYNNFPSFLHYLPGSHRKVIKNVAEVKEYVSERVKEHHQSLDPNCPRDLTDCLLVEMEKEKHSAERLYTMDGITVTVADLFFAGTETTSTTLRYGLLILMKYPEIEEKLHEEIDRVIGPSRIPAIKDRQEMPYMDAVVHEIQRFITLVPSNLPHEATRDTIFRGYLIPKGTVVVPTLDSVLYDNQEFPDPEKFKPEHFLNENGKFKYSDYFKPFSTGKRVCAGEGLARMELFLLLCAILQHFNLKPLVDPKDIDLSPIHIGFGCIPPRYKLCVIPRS

5-hydroxytryptamine receptor 6, sequence (P50406 whole entry): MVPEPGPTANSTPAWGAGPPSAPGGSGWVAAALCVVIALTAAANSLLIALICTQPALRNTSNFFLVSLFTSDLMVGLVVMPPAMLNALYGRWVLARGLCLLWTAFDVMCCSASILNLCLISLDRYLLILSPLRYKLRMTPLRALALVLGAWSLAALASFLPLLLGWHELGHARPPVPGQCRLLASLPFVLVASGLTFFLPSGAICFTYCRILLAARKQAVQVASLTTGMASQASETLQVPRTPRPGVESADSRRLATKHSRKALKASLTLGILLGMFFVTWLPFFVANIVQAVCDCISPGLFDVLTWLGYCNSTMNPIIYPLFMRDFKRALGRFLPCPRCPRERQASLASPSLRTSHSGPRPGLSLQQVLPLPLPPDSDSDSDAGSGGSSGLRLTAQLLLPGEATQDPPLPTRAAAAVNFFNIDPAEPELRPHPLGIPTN

SMILES	IC50 ([1]; hela)	IC50 [2]	IC50 [3]	Ki [3]	IC50 [4]	IC50 [5]	IC50 [6]	IC50 [7]	Ki [7]	IC50 [8]	Ki [8]	IC50 ([1]; read-out: IC50) [nM]
CC[C@H]1[C@@H]2C[C@H]3[C@@H]4N(C)c5ccccc5[C@]45C[C@@H]([C@@H]2[C@H]5O)N3[C@@H]1O [AJMALINE]	Not Active	Not Active	Not Active	Not Active	Not Active	Not Active	Not Active	Not Active	Not Active	Not Active	Not Active	
NCCCNCCSP(=O)(O)O [AMIFOSTINE]	Not Active	Not Active	Not Active	Not Active	Not Active	Not Active	Not Active	Not Active	Not Active	Not Active	Not Active	
CN(C)CCC=C1c2ccccc2CCc2ccccc21 [AMITRIPTYLINE]		Not Active	Not Active	Not Active	Not Active	Not Active	Not Active	Not Active	Not Active	Not Active	Not Active	140
CC(=O)Oc1ccccc1C(=O)O [ASPIRIN]	Not Active	Not Active	Not Active	Not Active	Not Active	Not Active	Not Active	Not Active	Not Active	Not Active	Not Active	
CC(=O)OC[C@H]1O[C@@H](n2ncc(=O)[nH]c2=O)[C@H](OC(C)=O)[C@@H]1OC(C)=O [AZARIBINE]	Not Active	Not Active	Not Active	Not Active	Not Active	Not Active	Not Active	Not Active	Not Active	Not Active	Not Active	
C[C@H]1[C@H](NC(=O)/C(=N\OC(C)(C)C(=O)O)c2csc(N)n2)C(=O)N1S(=O)(=O)O [AZTREONAM]	Not Active	Not Active	Not Active	Not Active	Not Active	Not Active	Not Active	Not Active	Not Active	Not Active	Not Active	
O=C(O)CCNC(=O)c1ccc(/N=N/c2ccc(O)c(C(=O)O)c2)cc1 [BALSALAZIDE]	Not Active	Not Active	Not Active	Not Active	Not Active	Not Active	Not Active	Not Active	Not Active	Not Active	Not Active	
COc1cc(OC)c(C(=O)CCCN2CCCC2)c(OC)c1 [BUFLOMEDIL]	Not Active	Not Active	Not Active	Not Active	Not Active	Not Active	Not Active	Not Active	Not Active	Not Active	Not Active	
Cn1c(=O)c2c(ncn2C)n(C)c1=O [CAFFEINE]	Not Active	Not Active	Not Active	Not Active	Not Active	Not Active	Not Active	Not Active	Not Active	Not Active	Not Active	
CNC1=Nc2ccc(Cl)cc2C(c2ccccc2)=[N+]([O-])C1 [CHLORDIAZEPOXIDE]	Not Active	Not Active	Not Active	Not Active	Not Active	Not Active	Not Active	Not Active	Not Active	Not Active	Not Active	
Cc1cc(O)cc(C)c1Cl [CHLOROXYLENOL]	Not Active	Not Active	Not Active	Not Active	Not Active	Not Active	Not Active	Not Active	Not Active	Not Active	Not Active	
CCCNC(=O)NS(=O)(=O)c1ccc(Cl)cc1 [CHLORPROPAMIDE]	Not Active	Not Active	Not Active	Not Active	Not Active	Not Active	Not Active	Not Active	Not Active	Not Active	Not Active	
NS(=O)(=O)c1cc(C2(O)NC(=O)c3ccccc32)ccc1Cl (configuration not stated) [CHLORTHALIDONE]	Not Active	Not Active	Not Active	Not Active	Not Active	Not Active	Not Active	Not Active	Not Active	Not Active	Not Active	
O=C(O)CC(O)(CC(=O)O)C(=O)O [CITRIC ACID]	Not Active	Not Active	Not Active	Not Active	Not Active	Not Active	Not Active	Not Active	Not Active	Not Active	Not Active	
CC(C)NCC(O)c1ccccc1Cl (configuration not stated) [CLORPRENALINE]	Not Active	Not Active	Not Active	Not Active	Not Active	Not Active	Not Active	Not Active	Not Active	Not Active	Not Active	
CN1CCN(C(c2ccccc2)c2ccccc2)CC1 [CYCLIZINE]	Not Active	Not Active	Not Active	Not Active	Not Active	Not Active	Not Active	Not Active	Not Active	Not Active	Not Active	
CN1C[C@@H]2C[C@H]1CN2c1cc2c(cc1F)c(=O)c(C(=O)O)cn2C1CC1 [DANOFLOXACIN]	Not Active	Not Active	Not Active	Not Active	Not Active	Not Active	Not Active	Not Active	Not Active	Not Active	Not Active	
COc1cccc2c1C(=O)c1c(O)c3c(c(O)c1C2=O)C[C@@](O)(C(C)=O)C[C@@H]3O[C@H]1C[C@H](N)[C@H](O)[C@H](C)O1 [DAUNORUBICIN]	Not Active	Not Active	Not Active	Not Active	Not Active	Not Active	Not Active	Not Active	Not Active	Not Active	Not Active	
O=C(O)c1cc(-c2ccc(F)cc2F)ccc1O [DIFLUNISAL]	Not Active	Not Active	Not Active	Not Active	Not Active	Not Active	Not Active	Not Active	Not Active	Not Active	Not Active	
C[S+](C)[O-] [DIMETHYL SULFOXIDE]	Not Active	Not Active	Not Active	Not Active	Not Active	Not Active	Not Active	Not Active	Not Active	Not Active	Not Active	
CC1=NN(c2ccccc2)C(=O)C1 [EDARAVONE]	Not Active	Not Active	Not Active	Not Active	Not Active	Not Active	Not Active	Not Active	Not Active	Not Active	Not Active	
C[C@]12CC[C@@H]3c4ccc(O)cc4CC[C@H]3[C@@H]1C[C@@H](O)[C@@H]2O [ESTRIOL]	Not Active	Not Active	Not Active	Not Active	Not Active	Not Active	Not Active	Not Active	Not Active	Not Active	Not Active	
